ChEMBL document CHEMBL1201862, “PubChem BioAssay data set” (2004)
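Results reflect a 48-hour exposure of cells in 96-well plates to compound at five concentrations. GI50 marks 50% less growth.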 Active and inactive are the calls of the source. Rule as the data show it: active = GI50 up to about 1.1 µM and inactive = higher.

What was measured:
Test in all cases: inhibition of tumour cell growth, NCI panel, 48 h
A549 = tested on: A549
TK-10 = tested on: TK-10
UACC-62 = tested on: UACC-62
SNB-75 = tested on: SNB-75
COLO 205 = tested on: COLO 205
EKVX = tested on: EKVX
PC-3 = tested on: PC-3
CAKI-1 = tested on: CAKI-1
CCRF-CEM = tested on: CCRF-CEM
A498 = tested on: A498
OVCAR-5 = tested on: OVCAR-5
HL-60 = tested on: HL-60
SK-MEL-2 = tested on: SK-MEL-2
UACC-257 = tested on: UACC-257
OVCAR-4 = tested on: OVCAR-4
HOP-62 = tested on: HOP-62
MCF7 = tested on: MCF7
KM12 = tested on: KM12
SR = tested on: SR
HCC 2998 = tested on: HCC 2998

SMILES	GI50 (A549)	GI50 (TK-10)	GI50 (UACC-62)	GI50 (SNB-75)	GI50 (COLO 205)	GI50 (EKVX)	GI50 (PC-3)	GI50 (CAKI-1)	GI50 (CCRF-CEM)	GI50 (A498)	GI50 (OVCAR-5)	GI50 (HL-60)	GI50 (SK-MEL-2)	GI50 (UACC-257)	GI50 (OVCAR-4)	GI50 (HOP-62)	GI50 (MCF7)	GI50 (KM12)	GI50 (SR)	GI50 (HCC 2998)
CCOC(=O)Nc1cc2c(c(N)n1)N=C(c1ccc(Cl)cc1Cl)CN2	< 0.0191 µM (active)	3.78 µM (inactive)	< 0.0105 µM (active)	< 0.01 µM (active)	0.0425 µM (active)	1.63 µM (inactive)	< 0.0129 µM (active)	0.0383 µM (active)	< 0.0155 µM (active)	2.68 µM (inactive)	0.0392 µM (active)	0.0132 µM (active)	< 0.01 µM (active)	20.8 µM (inactive)	14.3 µM (inactive)	< 0.0189 µM (active)	0.132 µM (active)	< 0.0174 µM (active)	< 0.01 µM (active)	0.0995 µM (active)
N#CC1=C(N)N(/N=C/c2ccccc2)C(c2ccccc2)C1(C#N)C#N (stereo not given)	18.7 µM (inactive)	6.3 µM (inactive)	13.5 µM (inactive)	16.9 µM (inactive)	2.19 µM (inactive)	20.2 µM (inactive)	16.4 µM (inactive)	4.61 µM (inactive)	1.9 µM (inactive)	15.9 µM (inactive)	18.7 µM (inactive)	2.19 µM (inactive)	17.2 µM (inactive)	9.38 µM (inactive)	14.9 µM (inactive)	16.8 µM (inactive)	8.17 µM (inactive)	22.8 µM (inactive)	2.26 µM (inactive)	19.6 µM (inactive)
O=C1C2CCN(CC2)C1CN1CCOCC1 (stereo not given)	19.7 µM (inactive)	6.82 µM (inactive)	16.1 µM (inactive)	17 µM (inactive)	1.79 µM (inactive)	17.8 µM (inactive)	20 µM (inactive)	2.16 µM (inactive)	6.98 µM (inactive)	16.8 µM (inactive)	5.53 µM (inactive)	2.74 µM (inactive)	17.5 µM (inactive)	4.33 µM (inactive)	4.04 µM (inactive)	18.5 µM (inactive)	2.9 µM (inactive)	16.6 µM (inactive)	6.1 µM (inactive)	15.7 µM (inactive)
CC(=O)O[C@H]1CC[C@H]2[C@@H]3CCC4C(C)=NNC(=O)C4[C@H]3CC[C@]12C (stereo not given in full)	> 100 µM (inactive)	> 76.6 µM (inactive)	> 100 µM (inactive)	14.2 µM (inactive)	> 100 µM (inactive)	48.9 µM (inactive)	> 100 µM (inactive)	> 90.2 µM (inactive)	> 100 µM (inactive)	37.2 µM (inactive)	> 100 µM (inactive)	> 100 µM (inactive)	> 75.2 µM (inactive)	> 100 µM (inactive)	> 100 µM (inactive)	19.8 µM (inactive)	> 100 µM (inactive)	> 100 µM (inactive)	> 100 µM (inactive)	> 100 µM (inactive)
N#Cc1cc2c(cc1Cl)Sc1nnc(Nc3ccccc3)n1S2(=O)=O	5.94 µM (inactive)	4.22 µM (inactive)	1.83 µM (inactive)	3.4 µM (inactive)	2.18 µM (inactive)	2.77 µM (inactive)	1.74 µM (inactive)	1.72 µM (inactive)	1.56 µM (inactive)	8.32 µM (inactive)	1.92 µM (inactive)	3.05 µM (inactive)	2.55 µM (inactive)	1.79 µM (inactive)	2.68 µM (inactive)	1.57 µM (inactive)	8.39 µM (inactive)	2.06 µM (inactive)	0.15 µM (active)	1.55 µM (inactive)
